Assay results: ChEMBL document CHEMBL1135124, “Novel bicyclic oxazolone derivatives as anti-angiogenic agents” (Bioorg Med Chem Lett, 2002)

Experiments:
A-431 = experiment: Inhibitory activity against proliferation of human epidermoid carcinoma (A431) cells; format: functional, cell-based
Gallus gallus = species on record: Gallus gallus; experiment: Anti-angiogenic activity was assessed by inhibition of the vascular growth in the chick embryo chorioallantoic membrane (CAM assay) at 125 nM; format: functional, tissue-based
L1210 = experiment: Inhibitory activity against proliferation of murine leukemia (L1210) cells; format: functional, cell-based; conditions: Mus musculus

Row | Compound | IC50 (A-431) [µM] | IC50 (L1210) [µM] | inhibition (Gallus gallus) [%]
1 | COC#C[C@@]1(C)O[C@@H]2OC(=O)N(C(=O)CCl)[C@@H]2CC1=O | 64 | 74 | 60
2 | CCCCCCC[C@H]1O[C@@H]2OC(=O)N(C(=O)CCl)[C@@H]2CC1=O | 79 | 96 | 87
3 | CCCCCC1OC1[C@@]1(C)O[C@@H]2OC(=O)N(C(=O)CCl)[C@@H]2C[C@@]12CO2 (stereo partly drawn) | 93 | 89 | 
4 | CCCCCC1OC1[C@@]1(C)O[C@@H]2OC(=O)N(C(=O)CCl)[C@@H]2C[C@]12CO2 (stereo partly drawn) | 33 | 22 | 19
5 | C[C@]1(C#CCCCCc2ccccc2)O[C@@H]2OC(=O)N(C(=O)CCl)[C@@H]2CC1=O | 56 | 27 | 60
6 | CO[C@@H]1[C@H](OC(=O)/C=C/C=C/C=C/C=C/C(=O)O)CC[C@]2(CO2)[C@H]1[C@@]1(C)O[C@@H]1CC=C(C)C [FUMAGILLIN] | 5 | 8 | 85

The next lines start with results.

Row | IC50 (A-431) [µM] | IC50 (L1210) [µM] | Compound | inhibition (Gallus gallus) [%]
7 | 5 | 32 | CCCCCC#C[C@]1(C)O[C@@H]2OC(=O)N(C(=O)CCl)[C@@H]2CC1=O | 50
8 | 52 | > 100 | CCCCCC#C[C@@]1(C)O[C@@H]2OC(=O)N(C(=O)CCl)[C@@H]2C[C@@H]1O | 40
9 | 47 | 31 | CCCCCC#C[C@@]1(C)O[C@@H]2OC(=O)N(C(=O)CCl)[C@@H]2CC1=O | 70
10 | 75 | > 100 | CCCCCC#C[C@@]1(C)O[C@@H]2OC(=O)N(C(=O)CCl)[C@@H]2C[C@H]1O | 25
11 | 78 | 28 | CCCCCCC[C@@]1(C)O[C@@H]2OC(=O)N(C(=O)CCl)[C@@H]2CC1=O | 60
12 | 81 | 81 | CCCCC/C=C/[C@@]1(C)O[C@@H]2OC(=O)N(C(=O)CCl)[C@@H]2CC1=O | 50
13 | 116 | 193 | CCCCCC1OC1[C@@]1(C)O[C@@H]2OC(=O)N(C(=O)CCl)[C@@H]2CC1=O (stereo partly drawn) | 58
